Measurements as given in patent publication US12606559B2, “JAK inhibitor compounds, methods for synthesizing same and use thereof” (GALDERMA HOLDING SA, priority 2020, dated 2026).
Like-named read-outs stand apart in the source and are kept apart here.

Legend:
[1] = biological target: T1, Recombinant JAK1 (Homo sapiens, UniProt P23458); test: In vitro enzyme assay (Cisbio kinase assay), JAK1; type: biochemical; conditions: ATP 300 μM; read-out: Enzymatic assay: IC50 JAK1
T1 construct: purchased Life Technologies PV4775
T1 sequence (P23458 whole entry): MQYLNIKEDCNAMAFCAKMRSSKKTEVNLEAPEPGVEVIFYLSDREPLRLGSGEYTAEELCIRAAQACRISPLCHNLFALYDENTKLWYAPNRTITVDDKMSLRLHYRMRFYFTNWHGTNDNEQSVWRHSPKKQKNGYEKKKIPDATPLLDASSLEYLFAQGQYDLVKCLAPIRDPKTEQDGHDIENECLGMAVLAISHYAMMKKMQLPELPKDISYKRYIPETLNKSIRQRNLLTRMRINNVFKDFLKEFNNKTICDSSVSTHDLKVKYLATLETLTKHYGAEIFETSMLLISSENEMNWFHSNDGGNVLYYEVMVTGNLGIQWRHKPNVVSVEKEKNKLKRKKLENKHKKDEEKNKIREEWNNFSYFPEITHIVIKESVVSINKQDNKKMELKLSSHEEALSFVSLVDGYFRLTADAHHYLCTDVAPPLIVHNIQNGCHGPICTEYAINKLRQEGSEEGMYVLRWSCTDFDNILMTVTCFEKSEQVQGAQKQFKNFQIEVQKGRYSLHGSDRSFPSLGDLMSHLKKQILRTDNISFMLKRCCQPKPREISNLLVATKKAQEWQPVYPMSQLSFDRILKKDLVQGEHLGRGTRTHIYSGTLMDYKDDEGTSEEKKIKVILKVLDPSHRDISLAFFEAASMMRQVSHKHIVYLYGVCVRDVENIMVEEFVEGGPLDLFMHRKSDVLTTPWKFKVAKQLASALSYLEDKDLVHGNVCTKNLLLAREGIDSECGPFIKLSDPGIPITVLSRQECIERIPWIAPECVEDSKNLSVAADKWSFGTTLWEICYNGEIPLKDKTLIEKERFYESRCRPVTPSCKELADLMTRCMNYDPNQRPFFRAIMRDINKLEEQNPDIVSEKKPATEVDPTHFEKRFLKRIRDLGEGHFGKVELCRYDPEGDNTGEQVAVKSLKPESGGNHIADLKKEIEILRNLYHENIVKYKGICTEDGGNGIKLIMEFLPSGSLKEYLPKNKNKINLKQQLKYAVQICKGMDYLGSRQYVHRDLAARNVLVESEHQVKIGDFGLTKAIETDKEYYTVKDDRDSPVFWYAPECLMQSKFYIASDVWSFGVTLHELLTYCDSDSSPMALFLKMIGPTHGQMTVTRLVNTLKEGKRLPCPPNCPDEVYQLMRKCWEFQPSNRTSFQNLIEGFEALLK

[2] = system: IL-6 induced p-STAT3Y705 in skin; test: In vivo pharmacodynamy model: IL-6 induced Phospho-STAT3, topical; set-up: species or system BALB/c ByJ Rj mice; conditions: topical 1 mM, vehicle PG/EtOH 3/7
[3] = SF logD; type: physicochemical
[4] = pKa; type: physicochemical
[5] = Intrinsic clearance in human hepatocytes; type: in vitro ADME; conditions: 2.5 μM
Procedure: The intrinsic clearance was assessed in cryopreserved Hepatocytes obtained by Human livers donors of mix gender pooled together, male balb-c mouse, male Wistar Han rats and male Göttingen minipig, by looking at the parent compound disappearance. The incubations were performed using a final concentration of viable cells of 1 million/ml (viability above 70%) and test item of 2.5 μM. Incubations were followed up to 2 h. Aliquotes were withdrawn at different time points and reaction quenched with acetonitrile. After centrifugation the supernatant was analyzed by HPLC/MS to quantify the remaining amount of parent in comparison with time 0. The clearance was calculated by fitting the log of the percentage remaining with Graphpad Prism ver.7.

[6] = In vivo pharmacokinetic analysis in rat, iv; set-up: species or system male Wistar Han rat; conditions: iv 1 mg/kg; for clearance / Vd / half-life: male, Wistar Han, rat, whole blood; for clearance: blood, read-out: iv PK rat: Cl; for Vd: read-out: iv PK rat: Vd; for half-life: read-out: iv PK rat: t½ (converted)
Procedure: One male Wistar Han rat. Compound was administered intravenously to fed animal at a target dose of 1 mg/kg, dose volume: 2 mL/kg, in DMSO/hydroxypropyl-beta-cyclodextrin 20% in phosphate buffer 60 mM pH 7 (5:95). Blood samples were collected at various time points. Blood samples were then assayed using a method based upon protein precipitation with acetonitrile followed by LC/MS/MS analysis. Non-compartmental methods were used for pharmacokinetic analysis of blood concentration versus time data

[7] = system: Salmonella typhimurium TA98 and TA100; test: Mini Ames assay (TA98 and TA100); type: cell-based; conditions: for AMES: TA98 and TA100, with and without S9; for increase in the mean number of revertants: TA98 and TA 100 with or without metabolic activation
Description: The Ames test in micro-method (in 6-well plates=mini Ames) follows the general principles of the standard Ames's technique. The Ames test used strains of bacteria Salmonella typhimurium that carry mutations in the genes involved in histidine synthesis. These strains are auxotrophic mutants, they require histidine for growth but cannot produce it. The assay was used to observe the ability of the test item to induce reverse mutations allowing the bacteria to grow in a histidine-free medium. The number of bacteria that revert and acquire the wild-type ability to grow in the absence of histidine can be estimated by counting the colonies that develop upon incubation. The use of different strains allows the identification of different mechanisms of gene mutation (TA98 for detection of frameshift mutations and TA100 for detection of base pair substitutions).
In a number of cases, the test item itself is not directly mutagenic but its metabolic derivatives are.
A toxicity assessment was performed on complete nutriment agar plate (with histidine) to define the highest concentration to be used in the genotoxicity assay. Solutions were prepared in 100% DMSO. The first concentration analyzed in the well (6-well plate) was 500 μg per plate followed by 7 serial dilutions (2 times factor of dilution). Each concentration was tested in triplicate on each strain and for each condition of treatment. The viability of the positive and negative controls was analyzed for each strain, in the presence or absence of metabolic activation system, and were compared with historical data to validate the study. If no bacterial toxicity occurred, the highest concentration tested for genotoxicity was […]. If toxicity occurred, a viability above than 70% defined the highest concentration tested.
The genotoxicity assessment was performed on minimal agar plate (without histidine) following the same dilution procedure as for the cytotoxicity assessment. DMSO and phosphate buffer controls were used as negative controls. 2-Nitrofluorene (2NF), 2-Aminoanthracene (2AA) and 4-Nitro-1.2 phenylenediamine (DANB) were selected as positive controls.
Test items, positive and negative controls were incubated with the 2 bacterial strains. After 48 h incubation at 37° C. with and without metabolic activation (S9), the prototrophic mutant colonies that had grown on the plates were counted. The results were expressed as the mean number of revertants for each condition tested (3 replicates each) and for each concentration of the test item and controls. Induction ration, corresponding to the ratio of revertants in presence of test item versus spontaneous revertant, was determined for each concentration.

[8] = biological target: T2, acetylcholinesterase (h) (Homo sapiens, UniProt P22303); test: CEREP Safety Screen-44: acetylcholinesterase (h); type: biochemical
T2 construct: CEREP
T2 sequence (P22303 32-614): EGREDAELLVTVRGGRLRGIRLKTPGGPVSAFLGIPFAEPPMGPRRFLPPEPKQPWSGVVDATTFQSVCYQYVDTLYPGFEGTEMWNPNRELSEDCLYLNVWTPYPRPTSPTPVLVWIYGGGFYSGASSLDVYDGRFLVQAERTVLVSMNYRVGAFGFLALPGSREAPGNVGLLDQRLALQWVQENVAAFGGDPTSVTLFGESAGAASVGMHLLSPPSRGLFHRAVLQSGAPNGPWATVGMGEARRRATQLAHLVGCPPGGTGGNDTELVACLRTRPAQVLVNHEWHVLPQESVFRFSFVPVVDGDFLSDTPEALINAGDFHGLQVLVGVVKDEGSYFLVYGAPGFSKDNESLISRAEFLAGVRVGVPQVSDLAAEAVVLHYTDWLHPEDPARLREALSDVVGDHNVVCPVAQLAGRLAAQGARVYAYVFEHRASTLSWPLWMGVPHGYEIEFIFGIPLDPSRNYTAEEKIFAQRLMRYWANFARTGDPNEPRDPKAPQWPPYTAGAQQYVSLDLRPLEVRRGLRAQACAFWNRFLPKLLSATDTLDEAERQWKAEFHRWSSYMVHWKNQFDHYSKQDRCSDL
Procedure: An in vitro pharmacology assay was conducted to assess the capability of the compounds to interact with different pharmacological targets when tested at 10 μM in different binding and enzyme/uptake assays. The included targets are indicative of potential effects in major organs and drug-drug interactions.
Compound binding was calculated as a % inhibition of the binding of a radioactively labelled ligand specific for each target. […] Results showing an inhibition or stimulation higher than 50% are considered to represent significant effects of the test compounds.

[9] = Plasma exposure, dermis concentration and skin/plasma ratio compared to Ruxolitinib; conditions: in vivo
[10] = BALB/c ByJ Rj, in vivo
[11] = Systemic level in PD/IL6 mouse topical dose response; conditions: topical 10 mM, PG/Acetone/Transcutol

SMILES | IC50 [1] | PD/IL6 mouse top @1 mM % inh vs vehicle [2] | logD [3] | pKa [4] | Intr. Clear. h heps [5] | iv PK rat: Cl (value in brackets, %) [6] | clearance [6] | Vd [6] | half-life [6] | AMES [7] | increase in the mean number of revertants [7] | Safety panel (Cerep): target with > 50% inh @ 10 microM [8] | dermis concentration, times higher compared to Ruxolitinib [9] | plasma exposure, times lower compared to Ruxolitinib [9] | skin/plasma ratio, times higher compared to Ruxolitinib [9] | PD/IL6 mouse top DR 0.01-10 mM: Systemic level @ 10 mM - 2 hrs [10] | PD/IL6 mouse top DR 0.01-10 mM: Systemic level @ 10 mM - 2 hrs [11]
CC1(C)CCN(C(=O)C[C@H]2C[C@@H](Nc3c(C#N)cnc4[nH]ccc34)C2)CC1 [Compound A, 4-(((cis)-3-(2-(4,4-dimethylpiperidin-1-yl)-2-oxoethyl)cyclobutyl)amino)-1H-pyrrolo[2,3-b]pyridine-5-carbonitrile] | 3 nM | 66% | 3.7 | 3.7 | 264 microL/min/10 6 cells | 46% | 36 mL/min/kg | 1.4 L/kg | 32.4 min | Neg/Neg | did not induce a biologically significant increase | acetylcholinesterase | 2.4 | 2.9 | 7 | 9.8 nM | 
CC1CCN(C(=O)C[C@H]2C[C@@H](Nc3c(C#N)cnc4[nH]ccc34)C2)CC1 [Compound B, 4-(((cis)-3-(2-(4-Methylpiperidin-1-yl)-2-oxoethyl)cyclobutyl)amino)-1H-pyrrolo[2,3-b]pyridine-5-carbonitrile] | 4 nM | 81%/ND Tofa @ 10 mM | 3.1 |  | 147 microL/min/10 6 cells | 46% | 36 mL/min/kg | 0.8 L/kg | 15.6 min | Neg/Neg | did not induce a biologically significant increase |  |  |  |  |  | 9.8 nM
